BindingDB's records for doi:10.1016/j.bmcl.2013.03.113 (Vanderbilt University Medical Center, 2013)

Target: T1, Bone morphogenetic protein 4 (Mus musculus, UniProt P21275)
T1 sequence (P21275 whole entry): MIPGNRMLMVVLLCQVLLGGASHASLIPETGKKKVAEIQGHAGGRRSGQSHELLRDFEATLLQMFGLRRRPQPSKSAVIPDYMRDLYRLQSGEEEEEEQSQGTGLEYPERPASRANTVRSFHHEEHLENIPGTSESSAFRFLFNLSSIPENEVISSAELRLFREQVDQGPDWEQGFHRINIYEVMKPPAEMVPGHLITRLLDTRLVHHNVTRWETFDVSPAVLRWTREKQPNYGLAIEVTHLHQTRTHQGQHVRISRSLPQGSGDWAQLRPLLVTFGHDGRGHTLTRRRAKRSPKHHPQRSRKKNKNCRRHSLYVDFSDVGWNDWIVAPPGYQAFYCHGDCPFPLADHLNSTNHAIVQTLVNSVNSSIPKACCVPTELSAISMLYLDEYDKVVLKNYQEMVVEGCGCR
Test: Inhibition of BMP4 in mouse C2C12BRA cells after 14 hrs by luciferase reporter gene assay

Row | Structure (SMILES) | IC50
1 | Clc1cc(-c2cnn3cc(-c4ccc(N5CCOCC5)cc4)cnc23)ccn1 | 529 nM
2 | c1ccc2c(-c3cnn4cc(-c5ccc(N6CCOCC6)cc5)cnc34)csc2c1 | 418 nM
